Assay: recombinant barcode read abundance after kanamycin selection (control-corrected) (log10(CPM+1)); higher = more efficient recombination; sequences stand for … in AGTGCAGAGAAAATCGGCCAGTTTTCTCTGCCTGCAGTCCGCATGCCGT…ATTTATGCAGCGGACTGCCTTTCTCCCAAAGTGATAAACCGGACAGTATCATGGACCGGTTTTCCCGGTAATCCGTATTTGCAAGGTTGGTTTCACT; site = the 11-nt target
In short: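 Pooled oligos, each joining a target to an IS621 bridge RNA target-binding loop, were cloned and co-electroporated with a donor plasmid into E. coli. Selective plates carried chloramphenicol/ampicillin/kanamycin and 0.1 mM IPTG, while chloramphenicol/ampicillin LB agar served as control, with two replicates of each. Recombination efficiency rests on averaged, control-corrected counts per million of barcodes at recombinant junctions, shown as log10(CPM+1).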
In the case of “GGACACCAATGGGTTCTAACCTGTTGCCTTT [GGACACCCTAG_LTGcore_AA_RTGcore_AA] (site GGACACCCTAG) (LTG core: AA, RTG core: AA)”, the “recombinant barcode read abundance (log10)” value is reported as 0.364. For “GGACACCCTTGGGTTCTAACCTGTTGCCTGC [GGACACCCTAG_LTGcore_CT_RTGcore_GC] (site GGACACCCTAG) (LTG core: CT, RTG core: GC)”, the “recombinant barcode read abundance (log10)” value was 1.55. For “GGACACCGCTGGGTTCTAACCTGTTGCCTAG [GGACACCCTAG_LTGcore_GC_RTGcore_CT] (site GGACACCCTAG) (LTG core: GC, RTG core: CT)”, the “recombinant barcode read abundance (log10)” value was 0.105. With “GGACACCTCTGGGTTCTAACCTGTTGCCTGA [GGACACCCTAG_LTGcore_TC_RTGcore_TC] (site GGACACCCTAG) (LTG core: TC, RTG core: TC)” the “recombinant barcode read abundance (log10)” value was 0.149. With “GGACACCTGTGGGTTCTAACCTGTTGCCTAG [GGACACCCTAG_LTGcore_TG_RTGcore_CT] (site GGACACCCTAG) (LTG core: TG, RTG core: CT)” the “recombinant barcode read abundance (log10)” value was 0.0753. With “GGACACCTGTGGGTTCTAACCTGTTGCCTCA [GGACACCCTAG_LTGcore_TG_RTGcore_TG] (site GGACACCCTAG) (LTG core: TG, RTG core: TG)” the “recombinant barcode read abundance (log10)” value was 0.15. For “GGACACCTTTGGGTTCTAACCTGTTGCCTAA [GGACACCCTAG_LTGcore_TT_RTGcore_TT] (site GGACACCCTAG) (LTG core: TT, RTG core: TT)”, the “recombinant barcode read abundance (log10)” value was 0.175. With “GGACACCTTTGGGTTCTAACCTGTTGCCTAG [GGACACCCTAG_LTGcore_TT_RTGcore_CT] (site GGACACCCTAG) (LTG core: TT, RTG core: CT)” the “recombinant barcode read abundance (log10)” value was 0.0765. For “GGCTCCCATTGGGTTCTAACCTGTTGCGGAG [GGCTCCCCTCC_LTGcore_AT_RTGcore_CT] (site GGCTCCCCTCC) (LTG core: AT, RTG core: CT)”, the “recombinant barcode read abundance (log10)” value was 0.157. For “GGCTCCCCTTGGGTTCTAACCTGTTGCGGAC [GGCTCCCCTCC_LTGcore_CT_RTGcore_GT] (site GGCTCCCCTCC) (LTG core: CT, RTG core: GT)”, the “recombinant barcode read abundance (log10)” value was 0.0822. In the case of “GGCTCCCCTTGGGTTCTAACCTGTTGCGGGA [GGCTCCCCTCC_LTGcore_CT_RTGcore_TC] (site GGCTCCCCTCC) (LTG core: CT, RTG core: TC)”, the “recombinant barcode read abundance (log10)” value is reported as 0.302. With “GGCTCCCCTTGGGTTCTAACCTGTTGCGGGC [GGCTCCCCTCC_LTGcore_CT_RTGcore_GC] (site GGCTCCCCTCC) (LTG core: CT, RTG core: GC)” the “recombinant barcode read abundance (log10)” value was 0.112. For “GGCTCCCGCTGGGTTCTAACCTGTTGCGGAG [GGCTCCCCTCC_LTGcore_GC_RTGcore_CT] (site GGCTCCCCTCC) (LTG core: GC, RTG core: CT)”, the “recombinant barcode read abundance (log10)” value was 0.0135. In the case of “GGCTCCCGGTGGGTTCTAACCTGTTGCGGAG [GGCTCCCCTCC_LTGcore_GG_RTGcore_CT] (site GGCTCCCCTCC) (LTG core: GG, RTG core: CT)”, the “recombinant barcode read abundance (log10)” value is reported as 0.0853. In the case of “GGCTCCCTATGGGTTCTAACCTGTTGCGGAG [GGCTCCCCTCC_LTGcore_TA_RTGcore_CT] (site GGCTCCCCTCC) (LTG core: TA, RTG core: CT)”, the “recombinant barcode read abundance (log10)” value is reported as 0.233. In the case of “GGGAGCCACTGGGTTCTAACCTGTTGCTGGT [GGGAGCCCTCA_LTGcore_AC_RTGcore_AC] (site GGGAGCCCTCA) (LTG core: AC, RTG core: AC)”, the “recombinant barcode read abundance (log10)” value is reported as 0.222. With “GGGAGCCCCTGGGTTCTAACCTGTTGCTGGG [GGGAGCCCTCA_LTGcore_CC_RTGcore_CC] (site GGGAGCCCTCA) (LTG core: CC, RTG core: CC)” the “recombinant barcode read abundance (log10)” value was 0.0526. With “GGGAGCCCTTGGGTTCTAACCTGTTGCTGAC [GGGAGCCCTCA_LTGcore_CT_RTGcore_GT] (site GGGAGCCCTCA) (LTG core: CT, RTG core: GT)” the “recombinant barcode read abundance (log10)” value was 1.06. With “GGGAGCCCTTGGGTTCTAACCTGTTGCTGGA [GGGAGCCCTCA_LTGcore_CT_RTGcore_TC] (site GGGAGCCCTCA) (LTG core: CT, RTG core: TC)” the “recombinant barcode read abundance (log10)” value was 0.172. For “GGGAGCCCTTGGGTTCTAACCTGTTGCTGTA [GGGAGCCCTCA_LTGcore_CT_RTGcore_TA] (site GGGAGCCCTCA) (LTG core: CT, RTG core: TA)”, the “recombinant barcode read abundance (log10)” value was 0.029. For “GGGAGCCGTTGGGTTCTAACCTGTTGCTGAC [GGGAGCCCTCA_LTGcore_GT_RTGcore_GT] (site GGGAGCCCTCA) (LTG core: GT, RTG core: GT)”, the “recombinant barcode read abundance (log10)” value was 0.168. With “GGGAGCCGTTGGGTTCTAACCTGTTGCTGAG [GGGAGCCCTCA_LTGcore_GT_RTGcore_CT] (site GGGAGCCCTCA) (LTG core: GT, RTG core: CT)” the “recombinant barcode read abundance (log10)” value was 0.186. For “GGGAGCCTCTGGGTTCTAACCTGTTGCTGAG [GGGAGCCCTCA_LTGcore_TC_RTGcore_CT] (site GGGAGCCCTCA) (LTG core: TC, RTG core: CT)”, the “recombinant barcode read abundance (log10)” value was 0.0348. With “GGGAGCCTCTGGGTTCTAACCTGTTGCTGGA [GGGAGCCCTCA_LTGcore_TC_RTGcore_TC] (site GGGAGCCCTCA) (LTG core: TC, RTG core: TC)” the “recombinant barcode read abundance (log10)” value was 0.0883. For “GGGAGCCTTTGGGTTCTAACCTGTTGCTGAA [GGGAGCCCTCA_LTGcore_TT_RTGcore_TT] (site GGGAGCCCTCA) (LTG core: TT, RTG core: TT)”, the “recombinant barcode read abundance (log10)” value was 0.11. In the case of “GGGCGGACTTGGGTTCTAACCTGTTGCGGAG [GGGCGGACTCC_LTGcore_CT_RTGcore_CT] (site GGGCGGACTCC) (LTG core: CT, RTG core: CT)”, the “recombinant barcode read abundance (log10)” value is reported as 2.08. With “GGGCGGACTTGGGTTCTAACCTGTTGCGGCC [GGGCGGACTCC_LTGcore_CT_RTGcore_GG] (site GGGCGGACTCC) (LTG core: CT, RTG core: GG)” the “recombinant barcode read abundance (log10)” value was 0.0677. In the case of “GGGCGGACTTGGGTTCTAACCTGTTGCGGCG [GGGCGGACTCC_LTGcore_CT_RTGcore_CG] (site GGGCGGACTCC) (LTG core: CT, RTG core: CG)”, the “recombinant barcode read abundance (log10)” value is reported as 0.232. With “GGGCGGACTTGGGTTCTAACCTGTTGCGGGG [GGGCGGACTCC_LTGcore_CT_RTGcore_CC] (site GGGCGGACTCC) (LTG core: CT, RTG core: CC)” the “recombinant barcode read abundance (log10)” value was 0.212. For “GGGCGGACTTGGGTTCTAACCTGTTGCGGTA [GGGCGGACTCC_LTGcore_CT_RTGcore_TA] (site GGGCGGACTCC) (LTG core: CT, RTG core: TA)”, the “recombinant barcode read abundance (log10)” value was 0.0865. With “GGGCGGACTTGGGTTCTAACCTGTTGCGGTT [GGGCGGACTCC_LTGcore_CT_RTGcore_AA] (site GGGCGGACTCC) (LTG core: CT, RTG core: AA)” the “recombinant barcode read abundance (log10)” value was 0.765. With “GGGCGGAGATGGGTTCTAACCTGTTGCGGTC [GGGCGGACTCC_LTGcore_GA_RTGcore_GA] (site GGGCGGACTCC) (LTG core: GA, RTG core: GA)” the “recombinant barcode read abundance (log10)” value was 0.235. With “GGGCGGATCTGGGTTCTAACCTGTTGCGGAG [GGGCGGACTCC_LTGcore_TC_RTGcore_CT] (site GGGCGGACTCC) (LTG core: TC, RTG core: CT)” the “recombinant barcode read abundance (log10)” value was 0.798. In the case of “GGGCGGATTTGGGTTCTAACCTGTTGCGGAA [GGGCGGACTCC_LTGcore_TT_RTGcore_TT] (site GGGCGGACTCC) (LTG core: TT, RTG core: TT)”, the “recombinant barcode read abundance (log10)” value is reported as 0.223. With “GGGCGGATTTGGGTTCTAACCTGTTGCGGAG [GGGCGGACTCC_LTGcore_TT_RTGcore_CT] (site GGGCGGACTCC) (LTG core: TT, RTG core: CT)” the “recombinant barcode read abundance (log10)” value was 0.188. In the case of “GGGCGTGAATGGGTTCTAACCTGTTGCCTAG [GGGCGTGCTAG_LTGcore_AA_RTGcore_CT] (site GGGCGTGCTAG) (LTG core: AA, RTG core: CT)”, the “recombinant barcode read abundance (log10)” value is reported as 0.0426. With “GGGCGTGCCTGGGTTCTAACCTGTTGCCTGG [GGGCGTGCTAG_LTGcore_CC_RTGcore_CC] (site GGGCGTGCTAG) (LTG core: CC, RTG core: CC)” the “recombinant barcode read abundance (log10)” value was 0.138. With “GGGCGTGCGTGGGTTCTAACCTGTTGCCTAG [GGGCGTGCTAG_LTGcore_CG_RTGcore_CT] (site GGGCGTGCTAG) (LTG core: CG, RTG core: CT)” the “recombinant barcode read abundance (log10)” value was 0.0925. For “GGGCGTGCTTGGGTTCTAACCTGTTGCCTCC [GGGCGTGCTAG_LTGcore_CT_RTGcore_GG] (site GGGCGTGCTAG) (LTG core: CT, RTG core: GG)”, the “recombinant barcode read abundance (log10)” value was 1.53. For “GGGCGTGCTTGGGTTCTAACCTGTTGCCTGC [GGGCGTGCTAG_LTGcore_CT_RTGcore_GC] (site GGGCGTGCTAG) (LTG core: CT, RTG core: GC)”, the “recombinant barcode read abundance (log10)” value was 0.847. In the case of “GGGCGTGCTTGGGTTCTAACCTGTTGCCTTC [GGGCGTGCTAG_LTGcore_CT_RTGcore_GA] (site GGGCGTGCTAG) (LTG core: CT, RTG core: GA)”, the “recombinant barcode read abundance (log10)” value is reported as 0.564. In the case of “GGGCGTGTATGGGTTCTAACCTGTTGCCTAG [GGGCGTGCTAG_LTGcore_TA_RTGcore_CT] (site GGGCGTGCTAG) (LTG core: TA, RTG core: CT)”, the “recombinant barcode read abundance (log10)” value is reported as 0. With “GGGCGTGTATGGGTTCTAACCTGTTGCCTTA [GGGCGTGCTAG_LTGcore_TA_RTGcore_TA] (site GGGCGTGCTAG) (LTG core: TA, RTG core: TA)” the “recombinant barcode read abundance (log10)” value was 0.36.

Reference: the supplement of paper PMC11208160
